Results taken from patent publication US8618283B2, “Ligand libraries for screening GPCRs” (Cambridge Enterprise Limited, priority 2005, dated 2013).

System: ET-A and/or ET-B receptor
Test: contraction of human aortic rings in organ culture (agonist assay)
Settings: increasing concentrations 0.01 nM to 100 nM, at top concentration, 37° C.
Protocol: Endothelin-1 is a peptide which signals through the ET-A and/or ET-B receptor to cause vasoconstriction. To determine whether compounds of the invention are agonists at ET-A and/or ET-B, rings of human aorta (obtained from transplant donor hearts) can be put into organ culture. Rings are then exposed either to increasing concentrations of Endothelin-1 (from 0.01 nM to 100 nM), or to increasing concentrations of the test compound(s) (from about 0.1 nM to about 10 mM) at 37° C., raising the concentration of the appropriate agent approximately every 5 minutes. Throughout the experiment the contraction of the aortic ring is measured by a strain gauge designed and commercially available for such a purpose. […] If the compound of the invention is an agonist at the endothelin receptors, then the force exerted on the strain guage will also be higher (at least at certain concentrations) than prior to addition of the test compound.

force exerted on the strain gauge versus prior to addition: significantly higher
Substance: Endothelin-1
